As a reminder, the IC50 is the concentration that gives 50% inhibition.

These results are taken from US20220402935A1, “HETEROCYCLIC COMPOUND” (FIMECS, INC., priority 2019, published 2022).

Assay [1] addresses T1, human XIAP_BIR3 domain purified protein (Homo sapiens, UniProt P98170).
T1 construct: purchased R & D
The experiment in a line: XIAP binding inhibitory activity (HTRF, b-Smac ligand). The settings on record: second symbol of cell; read-out: XIAP binding inhibition IC50 value. The protocol: Human XIAP binding inhibitory activity was measured by the Homogeneous Time Resolved Fluorescence (HTRF) method with using commercially available human XIAP_BIR3 domain purified protein (R & D) and as a ligand a Smac N-terminal peptide (AVPIAQK (SEQ ID NO: 1)) (hereinafter referred to as “b-Smac”; Peptide Research Laboratories, Inc.) biotinylated at the C-terminus according to a conventional method.
The HTRF method will be described in detail below.
The test compound diluted with a reaction buffer (25 mM HEPES Buffer containing 100 mM NaCl, 0.1% BSA, and 0.1% triton X-100, pH 7.5) was added to a 384-well white shallow bottom plate (Greiner 784076) at 1 μL/well and flash centrifuged for 30 seconds. Subsequently, human XIAP_BIR3 domain purified protein was diluted with the reaction buffer to obtain a 90 nM sample diluent, and the resultant sample diluent was added to the above-mentioned white superficial plate at 4.5 μL/well and flash centrifuged for 30 seconds. Subsequently, b-Smac diluted to 90 nM with the reaction buffer was added to the above-mentioned white superficial plat at 4.5 μL/well and flash centrifuged for 30 seconds. A mixed solution of Anti-6 HIS-Cryptate (Eu^3+ Cryptate-conjugated mouse monoclonal antibody anti-6 Histidine; cisbio) and Streptavidin-XL^eat (Highgrade XL665-conjugated streptavidin; cisbio) both diluted 100-fold with HTRF detection buffer (cisbio) at a volume ratio of 1:1 was added to the above white superficial plate at 10 μL/well. After flash centrifuging the white shallow bottom plate for 30 seconds, the white shallow bottom plate was left at room temperature for 4 hours or more in the dark. The white superficial plate after being left was subjected to fluorescence intensity measurement (excitation wavelength: 320 nm, fluorescence wavelength: 665 nm and 615 nm) by EnVision (Perkin Elmer). The binding inhibition rate (%) was calculated based on the HTRF ratio in the presence of the test compound to the HTRF ratio in the absence of the test compound (fluorescence intensity at 665 nm/fluorescence intensity at 615 nm).
The XIAP binding inhibition rate (%) of test compounds was evaluated.
(In general: TR-FRET usually uses a lanthanide donor and a delayed reading to cut background.)

In a further assay the target is T2, IRAK-M (Homo sapiens, UniProt Q9Y616).
T2 sequence (Q9Y616 1-596): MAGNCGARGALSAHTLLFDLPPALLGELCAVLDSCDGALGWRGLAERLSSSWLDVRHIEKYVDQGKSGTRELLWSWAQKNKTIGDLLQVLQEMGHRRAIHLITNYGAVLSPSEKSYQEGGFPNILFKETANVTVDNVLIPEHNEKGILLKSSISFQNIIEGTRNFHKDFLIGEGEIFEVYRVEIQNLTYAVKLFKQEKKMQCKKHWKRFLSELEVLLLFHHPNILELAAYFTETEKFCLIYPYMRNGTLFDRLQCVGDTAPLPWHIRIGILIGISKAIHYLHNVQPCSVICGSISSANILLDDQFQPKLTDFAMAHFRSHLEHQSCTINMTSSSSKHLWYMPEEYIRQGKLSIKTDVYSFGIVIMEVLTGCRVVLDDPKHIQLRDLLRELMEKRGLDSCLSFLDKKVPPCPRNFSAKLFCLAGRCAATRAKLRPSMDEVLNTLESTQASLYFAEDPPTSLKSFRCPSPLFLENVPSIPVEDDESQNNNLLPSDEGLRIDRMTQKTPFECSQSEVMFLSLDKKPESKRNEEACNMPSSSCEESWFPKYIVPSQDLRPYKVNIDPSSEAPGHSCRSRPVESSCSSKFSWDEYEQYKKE
The experiment in a line: IRAK-M binding inhibitory activity (KINOMEscan active site-dependent competitive assay). Details: purchased Eurofins Discover X. The settings on record: for IC50: second symbol of cell, read-out: IRAK-M binding inhibition IC50 value; for remaining binding at 1 µM: concentration of the test compound 1 μM, first symbol of cell, read-out: IRAK-M binding inhibition activity % Ctrl. Put shortly:
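Active site-dependent competition binding assay (KINOMEscan) against human IRAK-M. Result expressed as % Ctrl = (compound signal − positive control signal)/(DMSO signal − positive control signal) × 100, where DMSO = 100% Ctrl and control compound = 0% Ctrl.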

Molecules are shown by their SMILES. Where a name gives a salt, the structure may show the parent alone.

T1 sequence (P98170 252-356 limits assumed): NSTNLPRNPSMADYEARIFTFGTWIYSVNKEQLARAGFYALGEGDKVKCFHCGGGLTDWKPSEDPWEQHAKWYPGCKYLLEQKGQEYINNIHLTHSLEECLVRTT

Regarding `CN[C@@H](C)C(=O)N[C@H](C(=O)N1CCN(C(=O)c2c(C(=O)NCCOCCOCCOc3cc(C(C)N4CCC(Oc5ccnc6cc(C)sc56)CC4)on3)c3cc(F)c(F)cc3n2C)CC1)C1CCCCC1` (stereo partly drawn) [Example 9, 2-(4-((S)-2-cyclohexyl-2-((S)-2-(methylamino)propanamido)acetyl)piperazine-1-carbonyl)-5,6-difluoro-1-methyl-N-(2-(2-(2-((5-(1-(4-((2-methylthieno[3,2-b]pyridin-7-yl)oxy)piperidin-1-yl)ethyl)isoxazol-3-yl)oxy)ethoxy)ethoxy)ethyl)-1H-indole-3-carboxamide], the IC50 in assay [1] was in the range of 300 to 3000 nM; at IRAK-M, 30 to 100 nM.

For the compound `CN[C@@H](C)C(=O)N[C@H](C(=O)N1CCN(C(=O)c2c(C(=O)NCCOCCOCCOc3cc(CN4CCC(Oc5ccnc6ccsc56)CC4)on3)c3cc(F)c(F)cc3n2C)C[C@H]1C)C1CCCCC1` [Example 10, 2-((R)-4-((S)-2-cyclohexyl-2-((S)-2-(methylamino)propanamido)acetyl)-3-methylpiperazine-1-carbonyl)-5,6-difluoro-1-methyl-N-(2-(2-(2-((5-((4-(thieno[3,2-b]pyridin-7-yloxy)piperidin-1-yl)methyl)isoxazol-3-yl)oxy)ethoxy)ethoxy)ethyl)-1H-indole-3-carboxamide], the IC50 in assay [1] fell in the range of 300 to 3000 nM. Further, the remaining binding at 1 µM on IRAK-M was 25 to 50%.

With `CN[C@@H](C)C(=O)N[C@H](C(=O)N1CCN(C(=O)c2c(C(=O)N(C)CCOCCOCCOc3cc(CN4CCC(Oc5ccnc6ccsc56)CC4)on3)c3cc(F)c(F)cc3n2C)C[C@H]1C)C1CCCCC1` [Example 11, 2-((R)-4-((S)-2-cyclohexyl-2-((S)-2-(methylamino)propanamido)acetyl)-3-methylpiperazine-1-carbonyl)-5,6-difluoro-N,1-dimethyl-N-(2-(2-(2-((5-((4-(thieno[3,2-b]pyridin-7-yloxy)piperidin-1-yl)methyl)isoxazol-3-yl)oxy)ethoxy)ethoxy)ethyl)-1H-indole-3-carboxamide], in assay [1], the IC50 lay within 3000 to 30000 nM. At IRAK-M, the remaining binding at 1 µM is below 25%.

Turning to `CN[C@@H](C)C(=O)N[C@H](C(=O)N1CCN(C(=O)c2c(C(=O)NCCOCCOCCOc3cc(CN4CCC(Oc5ccnc6ccsc56)CC4)on3)c3cc(F)c(OC)cc3n2C)CC1)C1CCCCC1` [Example 13, 2-(4-((S)-2-cyclohexyl-2-((S)-2-(methylamino)propanamido)acetyl)piperazine-1-carbonyl)-5-fluoro-6-methoxy-1-methyl-N-(2-(2-(2-((5-((4-(thieno[3,2-b]pyridin-7-yloxy)piperidin-1-yl)methyl)isoxazol-3-yl)oxy)ethoxy)ethoxy)ethyl)-1H-indole-3-carboxamide], in assay [1], the IC50 is below 300 nM. Further, on IRAK-M, the remaining binding at 1 µM is below 25%.

For the compound `CN[C@@H](C)C(=O)N[C@H](C(=O)N1CCN(C(=O)c2c(C(=O)N(C)CCOCCOCCOc3cc(CN4CCC(Oc5ccnc6ccsc56)CC4)on3)c3cc(F)ccc3n2C)CC1)[C@H](O)C(C)C` [Example 14, 5-fluoro-2-(4-((2S,3R)-3-hydroxy-4-methyl-2-((S)-2-(methylamino)propanamido)pentanoyl)piperazine-1-carbonyl)-N,1-dimethyl-N-(2-(2-(2-((5-((4-(thieno[3,2-b]pyridin-7-yloxy)piperidin-1-yl)methyl)isoxazol-3-yl)oxy)ethoxy)ethoxy)ethyl)-1H-indole-3-carboxamide], the concentration for half-maximal inhibition (IC50) in assay [1] was in the range of 3000 to 30000 nM. Also, the remaining binding at 1 µM at IRAK-M is below 25%.

With `CN[C@@H](C)C(=O)N[C@@H](Cn1cccn1)C(=O)N1CCN(C(=O)c2c(C(=O)N(C)CCOCCOCCOc3cc(CN4CCC(Oc5ccnc6ccsc56)CC4)on3)c3cc(F)ccc3n2C)CC1` [Example 15, 5-fluoro-N,1-dimethyl-2-(4-((S)-2-((S)-2-(methylamino)propanamido)-3-(1H-pyrazol-1-yl)propanoyl)piperazine-1-carbonyl)-N-(2-(2-(2-((5-((4-(thieno[3,2-b]pyridin-7-yloxy)piperidin-1-yl)methyl)isoxazol-3-yl)oxy)ethoxy)ethoxy)ethyl)-1H-indole-3-carboxamide], the IC50 in assay [1] is 300 to 3000 nM. The remaining binding at 1 µM on IRAK-M was 25 to 50%.

As to `CN[C@@H](C)C(=O)N[C@H](C(=O)N1CCN(C(=O)c2c(C(=O)N(C)CCOCCOCCOc3cc(CN4CCC(Oc5ccnc6ccsc56)CC4)on3)c3cc(F)ccc3n2C)CC1)C(C)(C)O` [Example 16, 5-fluoro-2-(4-((S)-3-hydroxy-3-methyl-2-((S)-2-(methylamino)propanamido)butanoyl)piperazine-1-carbonyl)-N,1-dimethyl-N-(2-(2-(2-((5-((4-(thieno[3,2-b]pyridin-7-yloxy)piperidin-1-yl)methyl)isoxazol-3-yl)oxy)ethoxy)ethoxy)ethyl)-1H-indole-3-carboxamide], the 50% inhibitory concentration (IC50) in assay [1] was 300 to 3000 nM. Besides, the remaining binding at 1 µM on IRAK-M was in the range of 25 to 50%.

`C[C@@H]1CN(CC(=O)N2CCN(C(=O)c3cc4cc(F)c(F)cc4n3C)C[C@H]2C)[C@@H](COCCOCCOCCOc2cc(CN3CCC(Oc4ccnc5ccsc45)CC3)on2)CN1` [Example 17, 1-((R)-4-(5,6-Difluoro-1-methyl-1H-indole-2-carbonyl)-2-methylpiperazin-1-yl)-2-((2R,5R)-5-methyl-2-((2-(2-(2-((5-((4-(thieno[3,2-b]pyridin-7-yloxy)piperidin-1-yl)methyl)isoxazol-3-yl)oxy)ethoxy)ethoxy)ethoxy)methyl)piperazin-1-yl)ethan-1-one hydrochloride]: the IC50 in assay [1] is below 300 nM; at IRAK-M, 300 to 1000 nM.

For `Cc1cc2ccc(C(=O)N3CCN(C(=O)CN4C[C@@H](C)NC[C@@H]4COCCOCCOCCOc4cc(CN5CCC(Oc6ccnc7ccsc67)CC5)on4)CC3)cn2c1` [Example 18, 2-((2R,5R)-5-methyl-2-((2-(2-(2-((5-((4-(thieno[3,2-b]pyridin-7-yloxy)piperidin-1-yl)methyl)isoxazol-3-yl)oxy)ethoxy)ethoxy)ethoxy)methyl)piperazin-1-yl)-1-(4-(2-methylindolizine-6-carbonyl)piperazin-1-yl)ethan-1-one], the 50% inhibitory concentration (IC50) in assay [1] was below 300 nM; at IRAK-M it was 300 to 1000 nM.

With `C[C@@H]1CN(CC(=O)N2CCN(C(=O)c3cc4cc(F)c(F)cc4n3C)C[C@H]2C)[C@@H](COCCOCCOCCOCCOc2cc(CN3CCC(Oc4ccnc5ccsc45)CC3)on2)CN1` [Example 19, 1-((R)-4-(5,6-difluoro-1-methyl-1H-indole-2-carbonyl)-2-methylpiperazin-1-yl)-2-((2R,5R)-5-methyl-2-(13-((5-((4-(thieno[3,2-b]pyridin-7-yloxy)piperidin-1-yl)methyl)isoxazol-3-yl)oxy)-2,5,8,11-tetraoxatridecyl)piperazin-1-yl)ethan-1-one], the IC50 in assay [1] lay in the range of 300 to 3000 nM; at IRAK-M, 300 to 1000 nM.

For the compound `C[C@@H]1CN(CC(=O)N2CCN(C(=O)c3cc4cc(F)c(F)cc4n3C)C[C@H]2C)[C@@H](COCCOCCOc2cc(CN3CCC(Oc4ccnc5ccsc45)CC3)on2)CN1` [Example 20, 1-((R)-4-(5,6-difluoro-1-methyl-1H-indole-2-carbonyl)-2-methylpiperazin-1-yl)-2-((2R,5R)-5-methyl-2-((2-(2-((5-((4-(thieno[3,2-b]pyridin-7-yloxy)piperidin-1-yl)methyl)isoxazol-3-yl)oxy)ethoxy)ethoxy)methyl)piperazin-1-yl)ethan-1-one], the IC50 in assay [1] was in the range of 300 to 3000 nM. The remaining binding at 1 µM on IRAK-M fell in the range of 25 to 50%.
